# pIC50, pKd: −log10 of the molar value.
# How the values were obtained:
# HeLa cells = test: high throughput microscopy of HeLa cells; type: cell-based; details: single-compound assays
# Source text: The cellular basis of these phenotypes has not been investigated. No phenotypes consistent with mitotic arrest were observed.
# Ure2p [1] = biological target: T1, Ure2p (Saccharomyces cerevisiae, UniProt P23202); test: PUT1-lacZ reporter β-galactosidase assay; type: cell-based; details: yeast in YPD, 30 °C, 60-90 min; rapamycin 50 nM
# T1 construct: endogenous in cells; host or cells: yeast strain DB26-3A (MAT-a ura3-52 ade2 PUT1-lacZ)
# T1 sequence (P23202 1-354): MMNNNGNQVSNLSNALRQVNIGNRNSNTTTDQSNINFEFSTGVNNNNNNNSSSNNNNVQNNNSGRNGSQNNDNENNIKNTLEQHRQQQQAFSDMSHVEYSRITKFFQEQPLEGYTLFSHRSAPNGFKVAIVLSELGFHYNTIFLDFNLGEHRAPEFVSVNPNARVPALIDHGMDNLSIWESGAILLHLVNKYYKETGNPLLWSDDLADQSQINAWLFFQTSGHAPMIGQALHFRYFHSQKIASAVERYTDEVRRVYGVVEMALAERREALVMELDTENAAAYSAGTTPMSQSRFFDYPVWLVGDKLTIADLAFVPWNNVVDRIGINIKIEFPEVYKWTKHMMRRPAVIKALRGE
# Procedure: (§1) FIG. 24 depicts studies in vivo, dose response and structure-activity relationships of uretupamine. (A) A yeast strain (DB26-3A) growing in YPD medium expressing a PUT1-lacZ reporter was treated with 50 nM rapamycin or with a compound that had been detected to bind to labelled Ure2p on a small-molecule microarray. After 90 min of treatment at 30° C., a standard liquid b-galactosidase assay was performed. Data are expressed in fold Miller units compared with treatment with 50 nM rapamycin for 90 minutes. DB26-3A (MAT-a ura3-52 ade2 PUT1-lacZ) was a gift from M. Brandriss. Vehicle: samples treated with N,N-dimethylformamide (DMF), the vehicle into which library compounds were dissolved (B): Uretupamine A was resynthesized and tested in the b-galactosidase assay by using the PUT1-lacZ reporter at the concentrations indicated for 60 min at 30 C in YPD medium. (C) Compounds derived from the uretupamine A structure were synthesized to explore structure-activity relationships. Listed are b-galactosidase assay results of treatment with each compound at 100 μM (asterisk designates 50 μM) for 60 min at 30 C in YPD medium. Data are in percentage Miller units compared with treating with 50 nM rapamycin for 60 min. […] (D) Binding of uretupamine B to Ure2p was determined by using surface plasmon resonance (BIAcore 3000) to have a dissociation constant of 7.5 μM. […]
# Ure2p [2] = biological target: T1, Ure2p; test: surface plasmon resonance (BIAcore 3000) binding to immobilized Ure2p; set-up: species or system yeast; details: PBS/Tween-20 with 10% DMF, read-out: equilibrium dissociation constant for binding to Ure2p
# Procedure: as §1
# Ure2p-controlled genes = test: whole-genome transcription profiling of yeast strains; type: cell-based; details: 100 μM, 30 min
# Procedure: FIG. 25 depicts transcription profiling of treatment with uretupamine. (A) The left microarray corresponds to wild-type cells (PM38) treated with vehicle (DMF) versus wild type (w.t.) cells treated for 30 min with uretupamine A at 100 μM. The right microarray corresponds to ure2Δ cells (PH2) treated with vehicle versus ure2Δ cells treated for 30 min with uretupamine A at 100 μM. Profiles were obtained as described (Hardwick et al. Proc. Natl. Acad. Sci. USA 1999, 96, 14866-14870). At the right are shown specific gene inductions of some URE2-dependent genes from the microarrays. PM38 (MATaleu2-3,112 ura3-52), PM71 (MA4Taleu2-3, 112 ura3-52 gln3Δ5::LEU2), MS221 (MATaura3-52 nil1::hisG), PH2 (MATaleu2-3, 112 ura3-52 ure2Δ12::URA3) were gifts from B. Magasanik and M. Brandriss. (B) The transcription profiles of wild-type cells (PM38), ure2Δ cells (PH2), gln3Δ cells (PM71) and nil1Δ cells (MS221) grown in YPD medium treated for 30 min with 100 μM uretupamine B were obtained. The geometric means of gene inductions of the sets listed are shown. (C) An analysis was performed based on treating individual profiles as high-dimensional vectors and then examining the ratios of their magnitudes as a measure of relative activity (Shamji et al. Curr. Biol. 2000, 10, 1574-1581; Kuruvilla et al. Genome Biol. 2002, 3(3), 0011.1-0011.11).
# To determine the precise effects and specificity of uretupamine, whole-genome transcription profiling was used in wild-type cells as well as an otherwise isogenic ure2D strain-a ‘targetless’ strain (Marton et al. Nature Med 1998, 4, 1293-1301). […] The expression of other genes (including GAP1, MEP2, AGP1, BAT2 and DAL5) controlled by Ure2p was essentially unchanged (FIG. 25A,B).
# [3] = solubility in yeast medium; type: physicochemical; details: higher concentrations
# HDAC1 = biological target: T2, HDAC1 (Homo sapiens, UniProt Q13547); test: HDAC assay, [3H]acetate-incorporated histones with immunoprecipitated FLAG-tagged HDAC1; type: biochemical; details: calculated IC50, data in duplicate, at least two experiments; read-out: IC50 against HDAC1
# T2 construct: made in house; host or cells: TAg-Jurkat cells, transient transfection, then immunoprecipitation
# T2 sequence (Q13547 whole entry): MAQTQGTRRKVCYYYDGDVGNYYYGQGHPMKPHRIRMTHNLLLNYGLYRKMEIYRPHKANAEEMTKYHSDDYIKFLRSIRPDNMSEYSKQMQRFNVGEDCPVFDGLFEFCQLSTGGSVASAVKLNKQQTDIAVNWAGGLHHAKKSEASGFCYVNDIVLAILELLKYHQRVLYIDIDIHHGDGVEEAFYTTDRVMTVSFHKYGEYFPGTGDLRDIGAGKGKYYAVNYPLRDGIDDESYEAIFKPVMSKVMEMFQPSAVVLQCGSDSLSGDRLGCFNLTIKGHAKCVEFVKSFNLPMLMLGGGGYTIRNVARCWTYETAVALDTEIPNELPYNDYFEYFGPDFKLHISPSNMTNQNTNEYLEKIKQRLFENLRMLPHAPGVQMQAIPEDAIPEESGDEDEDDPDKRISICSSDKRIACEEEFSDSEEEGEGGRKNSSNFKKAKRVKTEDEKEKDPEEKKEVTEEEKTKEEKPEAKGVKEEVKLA
# Procedure: (§2) Cell culture and Transfections. TAg-Jurkat cells were transfected by electroporation with 5 μg of FLAG-epitope-tagged pBJ5 constructs (as described in ref. 5c) for expression of recombinant proteins. Cells were harvested 48 h posttransfection.
# HDAC assays. [^3H]Acetate-incorporated histones were isolated from butyrate-treated HeLa cells by hydroxyapatite chromatography (as described in Tong, et al. Nature 1997, 395, 917-921.) Immunoprecipitates were incubated with 1.4 μg (10,000 dpm) histones for 3 h at 37° C. HDAC activity was determined by scintillation counting of the ethyl acetate-soluble [^3H]acetic acid (as described in Taunton, et al., Science 1996, 272, 408-411). Compounds were added in DMSO such that final assay concentrations were 1% DMSO. IC50s were calculated using Prism 3.0 software. Curve fitting was done without constraints using the program's Sigmoidal-Dose Response parameters. All data points were acquired in duplicate and IC50s are calculated from the composite results of at least two separate experiments.
# HDAC6 = biological target: T3, HDAC6 (Homo sapiens, UniProt Q9UBN7); test: HDAC assay, [3H]acetate-incorporated histones with immunoprecipitated FLAG-tagged HDAC6 (HDAC6F); type: biochemical; set-up: made in house; host or cells: TAg Jurkat cells, transient transfection, anti-FLAG M2 immunoprecipitation; details: calculated IC50, data in duplicate, at least two experiments; read-out: IC50 against HDAC6
# T3 sequence (Q9UBN7 1-1215): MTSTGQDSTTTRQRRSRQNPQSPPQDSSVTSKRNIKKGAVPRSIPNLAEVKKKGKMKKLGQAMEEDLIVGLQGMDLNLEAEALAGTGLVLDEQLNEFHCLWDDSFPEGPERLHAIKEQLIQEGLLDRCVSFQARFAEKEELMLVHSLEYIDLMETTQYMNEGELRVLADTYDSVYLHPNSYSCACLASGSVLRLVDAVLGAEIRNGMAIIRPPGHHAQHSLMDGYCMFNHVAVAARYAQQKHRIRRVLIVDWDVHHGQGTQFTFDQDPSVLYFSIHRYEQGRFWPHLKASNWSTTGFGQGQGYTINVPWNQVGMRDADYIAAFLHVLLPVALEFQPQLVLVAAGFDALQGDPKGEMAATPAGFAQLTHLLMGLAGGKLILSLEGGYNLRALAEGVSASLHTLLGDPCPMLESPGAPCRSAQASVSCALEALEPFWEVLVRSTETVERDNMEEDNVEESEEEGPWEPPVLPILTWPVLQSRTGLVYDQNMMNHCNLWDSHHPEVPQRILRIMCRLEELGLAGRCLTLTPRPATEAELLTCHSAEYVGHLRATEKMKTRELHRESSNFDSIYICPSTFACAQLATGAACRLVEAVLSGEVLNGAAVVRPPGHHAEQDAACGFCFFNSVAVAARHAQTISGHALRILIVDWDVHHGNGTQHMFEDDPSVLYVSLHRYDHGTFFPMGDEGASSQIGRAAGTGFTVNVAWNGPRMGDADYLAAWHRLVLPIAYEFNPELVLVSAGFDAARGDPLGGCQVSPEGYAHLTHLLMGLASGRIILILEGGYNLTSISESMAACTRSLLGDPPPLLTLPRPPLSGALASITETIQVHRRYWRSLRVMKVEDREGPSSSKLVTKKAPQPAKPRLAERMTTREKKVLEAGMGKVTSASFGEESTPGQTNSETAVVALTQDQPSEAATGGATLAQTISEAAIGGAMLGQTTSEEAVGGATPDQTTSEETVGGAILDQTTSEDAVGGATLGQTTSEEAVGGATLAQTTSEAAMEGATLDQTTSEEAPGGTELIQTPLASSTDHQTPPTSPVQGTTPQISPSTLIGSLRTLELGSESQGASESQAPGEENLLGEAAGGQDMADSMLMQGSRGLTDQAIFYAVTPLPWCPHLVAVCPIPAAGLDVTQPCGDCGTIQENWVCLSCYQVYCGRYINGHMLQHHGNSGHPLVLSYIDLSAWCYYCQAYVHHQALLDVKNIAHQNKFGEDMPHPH
# Procedure: as §2
# HDAC assays. […] Compounds were added in DMSO such that final assay concentrations were 1% DMSO. IC50s were calculated using Prism 3.0 software. Curve fitting was done without constraints using the program's Sigmoidal-Dose Response parameters. All data points were acquired in duplicate and IC50s are calculated from the composite results of at least two separate experiments.
# Tubulin and MAPs were isolated from bovine brain as described [See http://mitchison.med.harvard.edu/protocols/tubprep.html]. Whole brain and fractions from phosphocellulose chromatography were blotted for HDAC6 and acetylated α-tubulin. Cultured hippocampal neurons from dissociated 1-day old rat brains were transfected with an enhanced green fluorescent protein (EGFP)-actin construct at 4-5 days using the calcium phosphate method [E. N. Star, D. J. Kwiatkowski and V. N. Murthy, Nat. Neurosci. […] K. Miranti and M. E. Greenberg, J. Neurosci. […] Transfected cultures were allowed to grow for at least 48 h before the addition of experimental compounds.
# [^3H]Acetate-incorporated histones were isolated from butyrate-treated HeLa cells as described [J. Taunton, C. […] Immunoprecipitates were incubated with acetylated histones and HDAC activity determined by scintillation counting as described [J. Taunton, C. […] TDAC assays were performed with immunoprecipitates using MAP-stabilized microtubules polymerized from MAP-rich tubulin fraction as described [C. […] Reactions were incubated (2 h) at 37° C., then incubated on ice (15 min).
pIC50 (HDAC1),pIC50 (HDAC6),SMILES,phenotype in HeLa cells by microscopy (HeLa cells),activation of PUT1-lacZ reporter (Ure2p [1]),pKd (Ure2p [2]),gene induction in ure2Δ strain (Ure2p-controlled genes),gene induction in wild-type cells (Ure2p-controlled genes),solubility in yeast medium [3],gene induction in gln3Δ strain (Ure2p-controlled genes),gene induction in nil1Δ strain (Ure2p-controlled genes)
,,"O=S(=O)(NCc1ccc(C2O[C@H](CSc3ccc(O)cc3)C[C@H](c3ccc(CO)cc3)O2)cc1)c1ccccc1 (mixture of isomers) [compound 12, (±)-N-[[4-(4R,6S)-4-[4-(hydroxymethyl)phenyl]-6-[[4-hydroxyphenyl)thio]methyl]-1,3-dioxan-2-yl]phenyl]methyl-benzenesulfonamide]",altered actin staining phenotype,,,,,,,
,,NCc1ccc([C@@H]2O[C@H](CSc3nc(-c4ccccc4)c(-c4ccccc4)o3)[C@@H](c3ccccc3)[C@H](c3ccc(CO)cc3)O2)cc1 (relative stereo) [uretupamine A],,gave a concentration dependent dose response that at higher concentrations approached the levels of reporter gene activation induced by rapamycin,4.74,little or no effect on either set of genes,upregulated only a subset of genes,poor solubility at higher concentrations in yeast medium,,
,,NCc1ccc([C@@H]2O[C@H](CSc3nc(-c4ccccc4)c(-c4ccccc4)o3)C[C@H](c3ccc(CO)cc3)O2)cc1 (relative stereo) [uretupamine B],,more potent than uretupamine A,5.12,little or no effect on either set of genes,upregulated only a subset of genes,more soluble derivative,deleting GLN3 had little effect on the actions of uretupamine,deleting NIL1 abrogated its actions
< 4.30,< 4.30,Cc1ccc(S(=O)(=O)N[C@@H](Cc2ccccc2)C(=O)Nc2cccc(C3O[C@H](CN4CCC(O)(c5ccc(Cl)cc5)CC4)[C@H](C)[C@H](c4ccc(CO)cc4)O3)c2)cc1 (stereo partly shown) [compound 11],cell detachment,,,,,,,

# Source: patent publication US8178579B2, “Dioxanes and uses thereof” (President and Fellows of Harvard College, priority 2001, dated 2012)
